Source: ChEMBL document CHEMBL1201862, “PubChem BioAssay data set” (2004)
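How tested: cells in 96-well plates exposed to compound for 48 hours at five concentrations. GI50 = concentration required for 50% inhibition of growth.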 The source made the active and inactive calls. Rule as the data show it: active = GI50 up to about 1.1 µM and inactive = higher.

How the values were obtained:
Assay in all cases: inhibition of tumour cell growth, NCI panel, 48 h
786-0 = tested on: 786-0
A549 = tested on: A549
ACHN = tested on: ACHN
CCRF-CEM = tested on: CCRF-CEM
HCT-116 = tested on: HCT-116
HOP-62 = tested on: HOP-62
Hs-578T = tested on: Hs-578T
K562 = tested on: K562
MDA-MB-435 = tested on: MDA-MB-435
MDA-N = tested on: MDA-N
Malme-3M = tested on: Malme-3M
OVCAR-3 = tested on: OVCAR-3
PC-3 = tested on: PC-3
RPMI-8226 = tested on: RPMI-8226
SF-539 = tested on: SF-539
SK-MEL-2 = tested on: SK-MEL-2
SK-MEL-5 = tested on: SK-MEL-5
SN12C = tested on: SN12C
TK-10 = tested on: TK-10
U-251 = tested on: U-251

Measured: GI50

COC(=O)CCCC(=O)/C(=N\Nc1ccc(Cl)cc1)Nc1c(Cl)cccc1Cl
inactive: 786-0 86.1 µM | A549 24.3 µM | ACHN > 87.9 µM | CCRF-CEM 26.2 µM | HCT-116 38.9 µM | HOP-62 > 67.6 µM | Hs-578T 42.8 µM | K562 48.1 µM | MDA-MB-435 76.7 µM | MDA-N > 84.5 µM | Malme-3M 97.1 µM | OVCAR-3 55.5 µM | PC-3 24 µM | RPMI-8226 21.8 µM | SF-539 > 100 µM | SK-MEL-2 24.6 µM | SK-MEL-5 32.8 µM | SN12C > 100 µM | TK-10 > 74.1 µM | U-251 55.5 µM

O=C1c2c(O)cccc2C(C(=O)CCCCC(=O)C2c3cccc(O)c3C(=O)c3c(O)cccc32)c2cccc(O)c21
active: A549 0.483 µM | ACHN 0.729 µM | CCRF-CEM 0.652 µM | HCT-116 0.67 µM | HOP-62 0.618 µM | Hs-578T 0.176 µM | K562 0.661 µM | MDA-MB-435 0.809 µM | MDA-N 0.879 µM | OVCAR-3 0.547 µM | PC-3 0.107 µM | RPMI-8226 0.457 µM | SF-539 0.399 µM | SK-MEL-2 0.54 µM | SK-MEL-5 0.473 µM | SN12C 0.83 µM | U-251 0.433 µM
inactive: 786-0 2.24 µM | Malme-3M 1.38 µM | TK-10 1.55 µM

CN(CCN(C)Cc1ccc(Cl)c(Cl)c1)CCN1CCCC1
inactive: 786-0 17.1 µM | A549 22.6 µM | ACHN > 43.3 µM | CCRF-CEM 3.72 µM | HCT-116 13.1 µM | HOP-62 22.1 µM | Hs-578T 9.04 µM | K562 9.16 µM | MDA-MB-435 7.82 µM | MDA-N 13.2 µM | Malme-3M 19.7 µM | OVCAR-3 > 75.7 µM | PC-3 32.5 µM | RPMI-8226 7.71 µM | SF-539 19.6 µM | SK-MEL-2 24.2 µM | SK-MEL-5 14.9 µM | SN12C > 48 µM | TK-10 40 µM | U-251 21.3 µM

Cc1ccc(/N=N/c2c(C)nn(C(=O)CC(=O)Nc3ccccc3)c2C)cc1C
inactive: 786-0 > 100 µM | A549 > 100 µM | ACHN > 100 µM | CCRF-CEM > 100 µM | HCT-116 > 100 µM | HOP-62 > 100 µM | Hs-578T > 100 µM | MDA-MB-435 > 100 µM | MDA-N > 100 µM | Malme-3M > 100 µM | OVCAR-3 > 100 µM | PC-3 > 100 µM | RPMI-8226 > 100 µM | SF-539 > 100 µM | SK-MEL-2 > 100 µM | SK-MEL-5 > 100 µM | SN12C > 100 µM | TK-10 > 100 µM | U-251 > 100 µM

CCOC(=O)C1(Cc2ccc(C)cc2)Cc2ccc(C)cc2C1=O (centres undefined)
inactive: 786-0 31.1 µM | A549 20.9 µM | ACHN 41.7 µM | CCRF-CEM 8.05 µM | HCT-116 6.73 µM | HOP-62 21.1 µM | Hs-578T 16.3 µM | K562 1.88 µM | MDA-MB-435 2.81 µM | MDA-N 2.38 µM | Malme-3M 16.4 µM | OVCAR-3 18.5 µM | PC-3 26 µM | RPMI-8226 12.2 µM | SF-539 19.8 µM | SK-MEL-2 14.6 µM | SK-MEL-5 6.4 µM | SN12C 14.9 µM | TK-10 23.5 µM | U-251 10 µM

O=S1(=O)OCCOS(=O)(=O)C1(F)Br
inactive: 786-0 > 100 µM | A549 > 100 µM | ACHN > 100 µM | CCRF-CEM > 100 µM | HCT-116 > 100 µM | HOP-62 > 100 µM | Hs-578T > 100 µM | K562 > 100 µM | MDA-MB-435 > 100 µM | MDA-N > 100 µM | Malme-3M > 100 µM | OVCAR-3 > 100 µM | PC-3 > 100 µM | RPMI-8226 > 100 µM | SF-539 > 100 µM | SK-MEL-2 > 100 µM | SK-MEL-5 > 100 µM | SN12C > 100 µM | TK-10 > 100 µM | U-251 > 100 µM

Cc1cc(S(=O)(=O)Nc2nc(Nc3ccc4ccccc4c3)n[nH]2)c(S)cc1Cl
inactive: 786-0 47.3 µM | A549 55.7 µM | ACHN 84.9 µM | CCRF-CEM > 100 µM | HCT-116 41.5 µM | HOP-62 28.1 µM | Hs-578T 22.2 µM | K562 > 100 µM | MDA-MB-435 24.9 µM | MDA-N 13.7 µM | Malme-3M 89.7 µM | OVCAR-3 23.2 µM | PC-3 33.6 µM | RPMI-8226 > 100 µM | SF-539 14 µM | SK-MEL-2 24 µM | SK-MEL-5 22.5 µM | SN12C 48.2 µM | TK-10 > 100 µM | U-251 39.9 µM
